Data: ChEMBL document CHEMBL1143508, “Design, synthesis, and structure-activity relationships of tetrahydroquinoline-based farnesyltransferase inhibitors” (Bioorg Med Chem Lett, 2005)

Tests used:
[1] = target: T1, Protein farnesyltransferase (Rattus norvegicus) (UniProt Q04631+Q02293); assay: Percentage cellular reversion of H-ras transformed Rat-1 cells at 100 nM; type: functional, cell-based
[2] = target: Protein farnesyltransferase (Homo sapiens, UniProt P49354+P49356); assay: Inhibition of human farnesyltransferase; type: protein-complex assay
[3] = target: T1, Protein farnesyltransferase (Rattus norvegicus); assay: Percentage cellular reversion in H-ras transformed Rat-1 cells at 1 uM; type: functional, cell-based
[4] = target: Protein farnesyltransferase (Rattus norvegicus, UniProt Q02293+Q04631); assay: Inhibition of cellular reversion in H-ras transformed Rat-1 cells; type: functional, cell-based
[5] = target: T1, Protein farnesyltransferase (Rattus norvegicus); assay: Percentage cellular reversion in H-ras transformed Rat-1 cells at 10 uM; type: functional, cell-based

Structure (SMILES)	Cellular reversion [1]	IC50 [2]	Cellular reversion [3]	IC50 [4]	Cellular reversion [5]
Cn1cncc1CN1CC(N(Cc2ccccc2)S(=O)(=O)c2ccccc2)Cc2cc(C#N)ccc21 (stereo not given)	85%	3 nM	–	–	–
Cn1cncc1CN1C[C@@H](N(Cc2ccsc2)S(=O)(=O)c2ccccc2)Cc2cc(C#N)ccc21	85%	1.1 nM	–	–	–
Cn1cncc1CN1CC(N(CC(=O)OC(C)(C)C)S(=O)(=O)c2ccccc2)Cc2cc(C#N)ccc21 (stereo not given)	75%	4 nM	–	–	–
Cn1cncc1CN1CC(NS(=O)(=O)c2ccccc2)Cc2cc(C#N)ccc21 (stereo not given)	0%	10 nM	–	–	30%
Cn1cncc1CN1CC(N(CCc2ccccc2)S(=O)(=O)c2ccccc2)Cc2cc(C#N)ccc21 (stereo not given)	0%	> 5000 nM	–	–	–
Cn1cncc1CN1CC(N(Cc2ccccc2)S(=O)(=O)c2cccnc2)Cc2cc(C#N)ccc21 (stereo not given)	85%	0.9 nM	–	70 nM	–
Cn1cncc1CN1CC(N(Cc2ccsc2)S(=O)(=O)c2ccccc2)Cc2cc(C#N)ccc21 (racemic)	90%	2.5 nM	–	–	–
Cn1cncc1CN1CC(N(CC2CCCCC2)S(=O)(=O)c2ccccc2)Cc2cc(C#N)ccc21 (stereo not given)	0%	48 nM	90%	–	–
Cn1cncc1CN1CC(N(Cc2ccccc2)S(=O)(=O)c2ccccn2)Cc2cc(C#N)ccc21 (stereo not given)	90%	2.6 nM	–	< 20 nM	–
Cn1cncc1CN1C[C@H](N(Cc2ccsc2)S(=O)(=O)c2ccccc2)Cc2cc(C#N)ccc21	80%	2.8 nM	–	–	–
Cn1cncc1CN1CC(N(CC(=O)OC(C)(C)C)S(=O)(=O)c2ccccn2)Cc2cc(C#N)ccc21 (stereo not given)	85%	–	–	10 nM	–
Cn1cncc1CN1CC(N(Cc2ccsc2)S(=O)(=O)c2ccccn2)Cc2cc(C#N)ccc21 (stereo not given)	95%	–	–	13 nM	–

Now from value to compound:

Cellular reversion [1]	IC50 [2]	Cellular reversion [3]	IC50 [4]	Cellular reversion [5]	Structure (SMILES)
95%	–	–	–	–	Cn1cc(S(=O)(=O)N(Cc2ccsc2)C2Cc3cc(C#N)ccc3N(Cc3cncn3C)C2)cn1 (stereo not given)
45%	3.5 nM	–	–	–	CN(C1Cc2cc(C#N)ccc2N(Cc2cncn2C)C1)S(=O)(=O)c1ccccc1 (stereo not given)
65%	–	–	–	–	Cn1cnc(S(=O)(=O)N(Cc2ccsc2)C2Cc3cc(C#N)ccc3N(Cc3cncn3C)C2)c1 (stereo not given)
0%	17 nM	10%	–	–	CN(C1Cc2cc(C#N)ccc2N(Cc2cncn2C)C1)S(=O)(=O)c1cccnc1 (stereo not given)
70%	1.2 nM	–	100 nM	–	C=C(C)CN(C1Cc2cc(C#N)ccc2N(Cc2cncn2C)C1)S(=O)(=O)c1cccnc1 (stereo not given)
0%	2.8 nM	85%	–	–	Cn1cncc1CN1CC(N(Cc2ccccc2)S(C)(=O)=O)Cc2cc(C#N)ccc21 (stereo not given)
75%	4.6 nM	–	–	–	Cn1cc(S(=O)(=O)N(Cc2ccccc2)C2Cc3cc(C#N)ccc3N(Cc3cncn3C)C2)cn1 (stereo not given)
85%	0.9 nM	–	60 nM	–	C=C(C)CN(C1Cc2cc(C#N)ccc2N(Cc2cncn2C)C1)S(=O)(=O)c1ccccn1 (stereo not given)
0%	3.1 nM	85%	–	–	CN(C1Cc2cc(C#N)ccc2N(Cc2cncn2C)C1)S(=O)(=O)c1ccccn1 (stereo not given)
85%	0.9 nM	–	–	–	Cn1cncc1CN1CC(N(Cc2ccsc2)S(=O)(=O)c2cccnc2)Cc2cc(C#N)ccc21 (stereo not given)
75%	1.1 nM	–	–	–	Cn1cnc(S(=O)(=O)N(Cc2ccccc2)C2Cc3cc(C#N)ccc3N(Cc3cncn3C)C2)c1 (stereo not given)
90%	0.6 nM	–	30 nM	–	Cn1cnc(S(=O)(=O)N(CC(=O)OC(C)(C)C)C2Cc3cc(C#N)ccc3N(Cc3cncn3C)C2)c1 (stereo not given)
90%	0.8 nM	–	8 nM	–	C=C(C)CN(C1Cc2cc(C#N)ccc2N(Cc2cncn2C)C1)S(C)(=O)=O (stereo not given)
95%	0.9 nM	–	–	–	C=C(C)CN(C1Cc2cc(C#N)ccc2N(Cc2cncn2C)C1)S(=O)(=O)c1ccccc1 (stereo not given)
30%	3.9 nM	–	225 nM	–	Cn1cncc1CN1CC(N(CC(=O)OC(C)(C)C)S(=O)(=O)c2cccnc2)Cc2cc(C#N)ccc21 (stereo not given)
80%	0.3 nM	–	50 nM	–	C=C(C)CN(C1Cc2cc(C#N)ccc2N(Cc2cncn2C)C1)S(=O)(=O)c1cn(C)cn1 (stereo not given)
0%	7.6 nM	25%	–	–	CN(C1Cc2cc(C#N)ccc2N(Cc2cncn2C)C1)S(=O)(=O)c1cnn(C)c1 (stereo not given)
